Assay results published in ChEMBL document CHEMBL1147121, “Dammarane triterpenoids from the roots of Gentiana rigescens” (2007).
The source made the active and inactive calls. The calls are words filed in the database; no cut-off is given here.

Experiments:
[1] = Antifungal activity against Glorosprium musarum at 1 ug/mL by disc diffusion method; type: functional; conditions: Gloeosporium
[2] = Antifungal activity against […] musarum at 1 mg/mL by disc diffusion method; conditions: Gloeosporium
[3] = system: Phytophthora litchii; test: Antifungal activity against Peronophythora litchii at 1 mg/mL by disc diffusion method
[4] = system: Glomerella cingulata; test: Antifungal activity against Glomerella cingulata at 1 mg/mL by disc diffusion method

`COC(=O)Nc1nc2ccccc2[nH]1` [CARBENDAZIM] gave an inhibition zone (IZ) [1] of 4 mm.

In the case of `CC1(C)O[C@](C(=O)O)([C@H]2CC[C@]3(C)[C@@H]2CC[C@@H]2[C@@]4(C)CC[C@H](O[C@@H]5O[C@H](CO)[C@@H](O)[C@H](O)[C@H]5O)[C@](C)(CO[C@@H]5O[C@H](CO)[C@@H](O)[C@H](O)[C@H]5O)[C@@H]4CC[C@]23C)C[C@H](O)[C@@H]1O` [GENTIRIGEOSIDE C], the Activity [2] is reported as “inactive” and the Activity [3] is reported as “inactive”.

For `CC1(C)O[C@](C(=O)O)([C@H]2CC[C@]3(C)[C@@H]2CC[C@@H]2[C@@]4(C)CC[C@H](O[C@@H]5O[C@H](CO)[C@@H](O)[C@H](O)[C@H]5O[C@@H]5O[C@H](CO)[C@@H](O)[C@H](O)[C@H]5O)C(C)(C)[C@@H]4CC[C@]23C)C[C@H](O)[C@@H]1O` [GENTIRIGEOSIDE E], the Activity [2] was “inactive” and the Activity [3] was “inactive”.

With `C[C@]12CC[C@H](O[C@@H]3O[C@H](CO)[C@@H](O)[C@H](O)[C@H]3O)[C@](C)(CO)[C@@H]1CC[C@]1(C)[C@@H]2CC[C@@H]2[C@@H]([C@]3(C(=O)O)C[C@H](O)[C@H](O)[C@](C)(CO)O3)CC[C@]21C` the Activity [4] was “inactive”, the Activity [2] was “inactive” and the Activity [3] was “inactive”.

For `CC1(C)O[C@](C(=O)O)([C@H]2CC[C@]3(C)[C@@H]2CC[C@@H]2[C@@]4(C)CC[C@H](O)[C@](C)(CO)[C@@H]4CC[C@]23C)C[C@H](O)[C@@H]1O`, the Activity [4] was “inactive”, the Activity [2] was “inactive” and the Activity [3] was “inactive”.

In the case of `CC1(C)O[C@](C(=O)O)([C@H]2CC[C@]3(C)[C@@H]2CC[C@@H]2[C@@]4(C)CC[C@H](O[C@@H]5O[C@H](CO)[C@@H](O)[C@H](O)[C@H]5O)[C@](C)(CO)[C@@H]4CC[C@]23C)C[C@H](O)[C@@H]1O` [GENTIRIGEOSIDE A], the Activity [2] is reported as “inactive” and the Activity [3] is reported as “inactive”.

With `CC1(C)O[C@](C(=O)O)([C@H]2CC[C@]3(C)[C@@H]2CC[C@@H]2[C@@]4(C)CC[C@H](O[C@@H]5O[C@H](CO)[C@@H](O)[C@H](O)[C@H]5O[C@@H]5O[C@H](CO)[C@@H](O)[C@H](O)[C@H]5O)[C@](C)(CO)[C@@H]4CC[C@]23C)C[C@H](O)[C@@H]1O` the Activity [4] was “inactive”, the Activity [2] was “inactive” and the Activity [3] was “inactive”.
